Reference: ChEMBL document CHEMBL3044741, “Synthesis of novel biologically active methylene derivatives of sydnones” (Med Chem Res, 2013)
Values after ≈ are worked out from the molar mass of the structure shown. Values belong to the compound of their own block, whether it stands above or below them.

Legend:
Human alphaherpesvirus 3 [1] = test: Antiviral activity against thymidine kinase-deficient Varicella-zoster virus infected in HEL cells assessed as reduction in plaque formation; assay type: functional, organism-based; settings: Human alphaherpesvirus 3, HEL
[2] = Cytotoxicity against human HEL cells; assay type: cell-based
[3] = Cytotoxicity against human HEL cells assessed as alteration in cell morphology; assay type: cell-based
Human alphaherpesvirus 3 [4] = test: Antiviral activity against Varicella-zoster virus Oka expressing thymidine kinase infected in HEL cells assessed as reduction in plaque formation; assay type: functional, organism-based; settings: Human alphaherpesvirus 3, strain Oka vaccine
Cytomegalovirus [5] = test: Antiviral activity against Cytomegalovirus Davis in HEL cells assessed as reduction in plaque formation; assay type: functional, organism-based; settings: Human betaherpesvirus 5, Davis
Cytomegalovirus [6] = test: Antiviral activity against Cytomegalovirus AD-169 infected in HEL cells assessed as reduction in plaque formation; assay type: functional, organism-based; settings: Human betaherpesvirus 5, AD-169, HEL
Staphylococcus aureus [7] = test: Antibacterial activity against Staphylococcus aureus MTCC 96 after 24 hrs by broth dilution method; assay type: functional; settings: MTCC 96, 24 h
Aspergillus niger [8] = test: Antifungal activity against Aspergillus niger MTCC 282 at 250 ug/ml after 74 hrs by Kirby-Bauer method; assay type: functional; settings: MTCC 282, 74 h, read-out: IZ
Candida albicans [9] = test: Antifungal activity against Candida albicans MTCC 227 at 250 ug/ml after 74 hrs by Kirby-Bauer method; assay type: functional; settings: MTCC 227, 74 h, read-out: IZ
[10] = system: Human immunodeficiency virus 2; test: Antiviral activity against HIV2 ROD infected in MT4 cells assessed as inhibition of virus-induced cytopathogenicity by MTT assay; assay type: functional, organism-based; settings: Human immunodeficiency virus 2, ISOLATE ROD
Escherichia coli [11] = test: Antibacterial activity against Escherichia coli MTCC 443 at 250 ug/ml after 24 hrs by Kirby-Bauer method; assay type: functional; settings: MTCC 443, 24 h, read-out: IZ
Aspergillus clavatus [12] = test: Antifungal activity against Aspergillus clavatus MTCC 1323 at 250 ug/ml after 74 hrs by Kirby-Bauer method; assay type: functional; settings: MTCC 1323, 74 h, read-out: IZ
Pseudomonas aeruginosa [13] = test: Antibacterial activity against Pseudomonas aeruginosa MTCC 424 at 250 ug/ml after 24 hrs by Kirby-Bauer method; assay type: functional; settings: MTCC 424, 24 h, read-out: IZ
Streptococcus pyogenes [14] = test: Antibacterial activity against Streptococcus pyogenes MTCC 442 after 24 hrs by broth dilution method; assay type: functional; settings: MTCC 442, 24 h
Aspergillus clavatus [15] = test: Antifungal activity against Aspergillus clavatus MTCC 1323; assay type: functional
[16] = Selectivity index, ratio of CC50 for human MT4 cells to IC50 for HIV1 3B; assay type: functional
[17] = Cytotoxicity against human MT4 cells by MTT assay; assay type: cell-based
Streptococcus pyogenes [18] = test: Antibacterial activity against Streptococcus pyogenes MTCC 442 at 250 ug/ml after 24 hrs by Kirby-Bauer method; assay type: functional; settings: MTCC 442, 24 h, read-out: IZ
[19] = Selectivity index, ratio of CC50 for human MT4 cells to IC50 for HIV2 ROD; assay type: functional
Escherichia coli [20] = test: Antibacterial activity against Escherichia coli MTCC 443 after 24 hrs by broth dilution method; assay type: functional; settings: MTCC 443, 24 h
Candida albicans [21] = test: Antifungal activity against Candida albicans MTCC 227; assay type: functional
[22] = system: Human immunodeficiency virus 1; test: Antiviral activity against HIV1 3B infected in MT4 cells assessed as inhibition of virus-induced cytopathogenicity by MTT assay; assay type: functional, organism-based; settings: Human immunodeficiency virus 1, 3B
Staphylococcus aureus [23] = test: Antibacterial activity against Staphylococcus aureus MTCC 96 at 250 ug/ml after 24 hrs by Kirby-Bauer method; assay type: functional; settings: MTCC 96, 24 h, read-out: IZ
Aspergillus niger [24] = test: Antifungal activity against Aspergillus niger MTCC 282; assay type: functional
Pseudomonas aeruginosa [25] = test: Antibacterial activity against Pseudomonas aeruginosa MTCC 424 after 24 hrs by broth dilution method; assay type: functional; settings: MTCC 424, 24 h

SMILES: [O-]c1c[n+](-c2ccc(Cc3ccc(-[n+]4cc([O-])on4)cc3)cc2)no1
- EC50 (Human alphaherpesvirus 3 [1]): > 4 µg/mL
- CC50 [2]: 33.3 µg/mL (≈ 99 µM)
- MCC [3]: ≥ 20 µg/mL
- EC50 (Human alphaherpesvirus 3 [4]): > 4 µg/mL
- EC50 (Cytomegalovirus [5]): > 20 µg/mL
- EC50 (Cytomegalovirus [6]): > 4 µg/mL

SMILES: CN1CCN(Cc2c([O-])on[n+]2-c2ccc(Cc3ccc(-[n+]4noc([O-])c4CN4CCN(C)C(c5ccccc5)C4)cc3)cc2)CC1c1ccccc1 (stereo not given)
- MIC (Staphylococcus aureus [7]): 500 µg/mL (≈ 701 µM)
- EC50 (Human alphaherpesvirus 3 [1]): > 20 µg/mL
- zone of inhibition at 250 µg/mL (Aspergillus niger [8]): 20 mm
- zone of inhibition at 250 µg/mL (Candida albicans [9]): 18 mm
- IC50 [10]: > 14 µg/mL
- zone of inhibition at 250 µg/mL (Escherichia coli [11]): 21 mm
- zone of inhibition at 250 µg/mL (Aspergillus clavatus [12]): 23 mm
- CC50 [2]: 36.8 µg/mL (≈ 51.6 µM)
- zone of inhibition at 250 µg/mL (Pseudomonas aeruginosa [13]): 18 mm
- MCC [3]: 100 µg/mL
- EC50 (Human alphaherpesvirus 3 [4]): > 20 µg/mL
- EC50 (Cytomegalovirus [5]): > 20 µg/mL
- MIC (Streptococcus pyogenes [14]): 250 µg/mL (≈ 351 µM)
- MIC (Aspergillus clavatus [15]): 500 µg/mL (≈ 701 µM)
- Ratio CC50/IC50 [16]: <1
- CC50 [17]: 14 µg/mL (≈ 19.6 µM)
- zone of inhibition at 250 µg/mL (Streptococcus pyogenes [18]): 18 mm
- Ratio CC50/IC50 [19]: <1
- MIC (Escherichia coli [20]): 100 µg/mL (≈ 140 µM)
- MIC (Candida albicans [21]): 500 µg/mL (≈ 701 µM)
- IC50 [22]: > 14 µg/mL
- zone of inhibition at 250 µg/mL (Staphylococcus aureus [23]): 16 mm
- EC50 (Cytomegalovirus [6]): > 20 µg/mL
- MIC (Aspergillus niger [24]): 1000 µg/mL (≈ 1400 µM)
- MIC (Pseudomonas aeruginosa [25]): 250 µg/mL (≈ 351 µM)

SMILES: CC(=O)N1CCN(Cc2c([O-])on[n+]2-c2ccc(C)cc2)CC1
- MIC (Staphylococcus aureus [7]): 500 µg/mL (≈ 1580 µM)
- EC50 (Human alphaherpesvirus 3 [1]): > 20 µg/mL
- zone of inhibition at 250 µg/mL (Aspergillus niger [8]): 26 mm
- zone of inhibition at 250 µg/mL (Candida albicans [9]): 22 mm
- IC50 [10]: > 17.3 µg/mL
- zone of inhibition at 250 µg/mL (Escherichia coli [11]): 19 mm
- zone of inhibition at 250 µg/mL (Aspergillus clavatus [12]): 24 mm
- CC50 [2]: 24.9 µg/mL (≈ 78.7 µM)
- zone of inhibition at 250 µg/mL (Pseudomonas aeruginosa [13]): 17 mm
- MCC [3]: 100 µg/mL
- EC50 (Human alphaherpesvirus 3 [4]): > 20 µg/mL
- EC50 (Cytomegalovirus [5]): > 20 µg/mL
- MIC (Streptococcus pyogenes [14]): 100 µg/mL (≈ 316 µM)
- MIC (Aspergillus clavatus [15]): 200 µg/mL (≈ 632 µM)
- Ratio CC50/IC50 [16]: <1
- CC50 [17]: 17.3 µg/mL (≈ 54.6 µM)
- zone of inhibition at 250 µg/mL (Streptococcus pyogenes [18]): 21 mm
- Ratio CC50/IC50 [19]: <1
- MIC (Escherichia coli [20]): 250 µg/mL (≈ 790 µM)
- MIC (Candida albicans [21]): 200 µg/mL (≈ 632 µM)
- IC50 [22]: > 17.3 µg/mL
- zone of inhibition at 250 µg/mL (Staphylococcus aureus [23]): 17 mm
- EC50 (Cytomegalovirus [6]): > 20 µg/mL
- MIC (Aspergillus niger [24]): 200 µg/mL (≈ 632 µM)
- MIC (Pseudomonas aeruginosa [25]): 500 µg/mL (≈ 1580 µM)

SMILES: [O-]c1on[n+](-c2ccc(Cc3ccc(-[n+]4noc([O-])c4CN4CCCCC4)cc3)cc2)c1CN1CCCCC1
- MIC (Staphylococcus aureus [7]): 250 µg/mL (≈ 471 µM)
- EC50 (Human alphaherpesvirus 3 [1]): > 4 µg/mL
- zone of inhibition at 250 µg/mL (Aspergillus niger [8]): 23 mm
- zone of inhibition at 250 µg/mL (Candida albicans [9]): 22 mm
- IC50 [10]: > 12 µg/mL
- zone of inhibition at 250 µg/mL (Escherichia coli [11]): 16 mm
- zone of inhibition at 250 µg/mL (Aspergillus clavatus [12]): 21 mm
- CC50 [2]: 12.6 µg/mL (≈ 23.7 µM)
- zone of inhibition at 250 µg/mL (Pseudomonas aeruginosa [13]): 20 mm
- MCC [3]: ≥ 20 µg/mL
- EC50 (Human alphaherpesvirus 3 [4]): > 4 µg/mL
- EC50 (Cytomegalovirus [5]): 20 µg/mL (≈ 37.7 µM)
- MIC (Streptococcus pyogenes [14]): 125 µg/mL (≈ 236 µM)
- MIC (Aspergillus clavatus [15]): 500 µg/mL (≈ 942 µM)
- Ratio CC50/IC50 [16]: <1
- CC50 [17]: 12.1 µg/mL (≈ 22.7 µM)
- zone of inhibition at 250 µg/mL (Streptococcus pyogenes [18]): 20 mm
- Ratio CC50/IC50 [19]: <1
- MIC (Escherichia coli [20]): 500 µg/mL (≈ 942 µM)
- MIC (Candida albicans [21]): 500 µg/mL (≈ 942 µM)
- IC50 [22]: > 12 µg/mL
- zone of inhibition at 250 µg/mL (Staphylococcus aureus [23]): 18 mm
- EC50 (Cytomegalovirus [6]): > 4 µg/mL
- MIC (Aspergillus niger [24]): 250 µg/mL (≈ 471 µM)
- MIC (Pseudomonas aeruginosa [25]): 125 µg/mL (≈ 236 µM)

- MIC (Staphylococcus aureus [7]): 500 µg/mL (≈ 892 µM)
- MIC (Streptococcus pyogenes [14]): 62.5 µg/mL (≈ 111 µM)
- MIC (Aspergillus clavatus [15]): 500 µg/mL (≈ 892 µM)
- MIC (Escherichia coli [20]): 250 µg/mL (≈ 446 µM)
- MIC (Candida albicans [21]): 500 µg/mL (≈ 892 µM)
- MIC (Aspergillus niger [24]): 1000 µg/mL (≈ 1780 µM)
- MIC (Pseudomonas aeruginosa [25]): 250 µg/mL (≈ 446 µM)
SMILES: CN1CCN(Cc2c([O-])on[n+]2-c2ccc(Cc3ccc(-[n+]4noc([O-])c4CN4CCN(C)CC4)cc3)cc2)CC1
- zone of inhibition at 250 µg/mL (Aspergillus niger [8]): 20 mm
- zone of inhibition at 250 µg/mL (Candida albicans [9]): 19 mm
- zone of inhibition at 250 µg/mL (Escherichia coli [11]): 19 mm
- zone of inhibition at 250 µg/mL (Aspergillus clavatus [12]): 23 mm
- zone of inhibition at 250 µg/mL (Pseudomonas aeruginosa [13]): 19 mm
- zone of inhibition at 250 µg/mL (Streptococcus pyogenes [18]): 22 mm
- zone of inhibition at 250 µg/mL (Staphylococcus aureus [23]): 16 mm

SMILES: O=C(O)c1cn(C2CC2)c2cc(N3CCNCC3)c(F)cc2c1=O [CIPROFLOXACIN]
- MIC (Staphylococcus aureus [7]): 50 µg/mL (≈ 151 µM)
- zone of inhibition at 250 µg/mL (Escherichia coli [11]): 28 mm
- zone of inhibition at 250 µg/mL (Pseudomonas aeruginosa [13]): 27 mm
- MIC (Streptococcus pyogenes [14]): 50 µg/mL (≈ 151 µM)
- zone of inhibition at 250 µg/mL (Streptococcus pyogenes [18]): 22 mm
- MIC (Escherichia coli [20]): 25 µg/mL (≈ 75.4 µM)
- zone of inhibition at 250 µg/mL (Staphylococcus aureus [23]): 22 mm

SMILES: CC1(C)S[C@@H]2[C@H](NC(=O)[C@H](N)c3ccccc3)C(=O)N2[C@H]1C(=O)O [AMPICILLIN]
- MIC (Staphylococcus aureus [7]): 250 µg/mL (≈ 715 µM)
- zone of inhibition at 250 µg/mL (Escherichia coli [11]): 20 mm
- zone of inhibition at 250 µg/mL (Pseudomonas aeruginosa [13]): 20 mm
- MIC (Streptococcus pyogenes [14]): 100 µg/mL (≈ 286 µM)
- zone of inhibition at 250 µg/mL (Streptococcus pyogenes [18]): 19 mm
- MIC (Escherichia coli [20]): 100 µg/mL (≈ 286 µM)
- zone of inhibition at 250 µg/mL (Staphylococcus aureus [23]): 18 mm
- MIC (Pseudomonas aeruginosa [25]): 100 µg/mL (≈ 286 µM)

SMILES: Cc1ccnc2c1NC(=O)c1cccnc1N2C1CC1 [NEVIRAPINE]
- IC50 [10]: > 4 µg/mL
- Ratio CC50/IC50 [16]: >80
- CC50 [17]: > 4 µg/mL
- Ratio CC50/IC50 [19]: <1
- IC50 [22]: 0.05 µg/mL (≈ 0.188 µM)

SMILES: Nc1ccn([C@H]2CC[C@@H](CO)O2)c(=O)n1 [ZALCITABINE]
- IC50 [10]: 0.19 µg/mL (≈ 0.9 µM)
- Ratio CC50/IC50 [16]: >127
- CC50 [17]: > 20 µg/mL
- Ratio CC50/IC50 [19]: >108
- IC50 [22]: 0.16 µg/mL (≈ 0.758 µM)
